Source: patent publication US7939554B2, “Protein phosphatase inhibitors” (The Cleveland Clinic Foundation, priority 2006, dated 2011)

Key:
[1] = toxicity in mice (viability); format: in vivo, mouse; settings: 10 mg/kg, daily, s.c., two weeks
Experimental: FIG. 3 illustrates differential toxicity of L5 and L6. Jurkat cells were cultured in the absence or presence of lead compound #5 (L5) (A) or #6 (L6) (B) for 6 days prior to quantification of cell growth by MTT assays. Data represent mean±SD of triplicate samples. Balb/c mice were treated with L5 (˜10 mg/kg body weight, s. c., daily, M-F/wk) for two weeks to assess its toxicity in vivo (C).
Spleens were harvested one hour post-treatment on day 4 and processed into splenocytes, which were used for assessing pLck levels by SDS-PAGE/Western blotting and for quantification of IFNγ+ cells by ELISPOT assays. Mice were also treated with L5 (˜10 mg/kg body weight, daily, s. c., n=2) to evaluate the toxicity of the compounds in vivo.

human peripheral blood = experiment: induction of IFNγ+ cells in human peripheral blood in vitro (ELISPOT); format: cell-based
Experimental: For induction of human primary IFNγ+ cells, heparinized peripheral blood samples were obtained by vein-puncture from healthy volunteers following an established protocol approved by the Institutional Review Board (IRB) of Cleveland Clinic. To mimic in vivo drug-exposure, human peripheral blood samples were directly treated with different agents without pre-separation of white blood cells from other blood components. Blood samples (0.1 ml/sample) were mixed with the agents, incubated at 37° C. for 4 hrs, diluted with 5 volumes of hypotonic solution (10 mM Tris, pH 7.4; 10 mM NaCl) to lyse RBC and centrifuged to pellet WBCs. The pellets were washed with hypotonic solution one time, re-suspended in RPMI 1640 medium (10% FCS) and used for ELISPOT assays (Human IFNγ ELISPOT Kit, R & D System) to quantify human IFNγα cells as outlined above.

PTPase CD45 = molecular target: T1, PTPase CD45 (Homo sapiens, UniProt P08575); experiment: pLck-pY505 levels in L5-treated Jurkat cells; format: cell-based; settings: FIG. 4D
T1 construct: endogenous in cells; host or cells: Jurkat
T1 sequence (P08575 26-1306): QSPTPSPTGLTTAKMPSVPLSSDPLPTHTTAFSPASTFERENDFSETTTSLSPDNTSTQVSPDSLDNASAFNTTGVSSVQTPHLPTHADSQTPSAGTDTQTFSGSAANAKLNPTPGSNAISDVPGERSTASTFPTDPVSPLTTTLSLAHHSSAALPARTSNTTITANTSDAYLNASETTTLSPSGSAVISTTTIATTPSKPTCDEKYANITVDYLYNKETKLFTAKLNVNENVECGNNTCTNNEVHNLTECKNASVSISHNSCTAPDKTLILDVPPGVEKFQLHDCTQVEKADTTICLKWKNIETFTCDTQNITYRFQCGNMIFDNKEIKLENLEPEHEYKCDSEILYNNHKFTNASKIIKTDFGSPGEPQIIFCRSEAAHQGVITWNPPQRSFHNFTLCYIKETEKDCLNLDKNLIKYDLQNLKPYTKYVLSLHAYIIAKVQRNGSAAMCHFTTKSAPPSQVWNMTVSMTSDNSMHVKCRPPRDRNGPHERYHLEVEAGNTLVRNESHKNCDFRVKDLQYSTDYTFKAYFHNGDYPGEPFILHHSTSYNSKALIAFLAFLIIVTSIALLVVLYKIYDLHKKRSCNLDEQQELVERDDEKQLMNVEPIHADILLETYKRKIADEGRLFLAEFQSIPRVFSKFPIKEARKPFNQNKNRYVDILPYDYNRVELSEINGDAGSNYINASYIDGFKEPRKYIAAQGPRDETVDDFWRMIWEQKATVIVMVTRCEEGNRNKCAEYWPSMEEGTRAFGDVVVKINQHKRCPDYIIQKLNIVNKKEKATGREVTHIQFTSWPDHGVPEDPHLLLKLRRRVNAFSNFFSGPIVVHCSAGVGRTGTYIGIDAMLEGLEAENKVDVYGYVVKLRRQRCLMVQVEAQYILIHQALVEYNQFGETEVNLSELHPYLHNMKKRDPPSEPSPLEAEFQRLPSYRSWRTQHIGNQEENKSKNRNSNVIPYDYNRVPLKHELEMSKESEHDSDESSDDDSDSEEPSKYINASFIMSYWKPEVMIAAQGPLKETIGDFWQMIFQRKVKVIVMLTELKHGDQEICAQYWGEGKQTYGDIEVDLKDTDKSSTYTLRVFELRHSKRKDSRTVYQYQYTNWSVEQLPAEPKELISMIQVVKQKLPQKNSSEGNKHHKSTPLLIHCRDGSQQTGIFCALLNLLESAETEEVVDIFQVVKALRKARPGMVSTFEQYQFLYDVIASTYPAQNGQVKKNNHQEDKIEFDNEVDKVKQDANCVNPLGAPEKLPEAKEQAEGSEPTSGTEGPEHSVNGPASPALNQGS
Experimental: Jurkat cells in culture medium (3×10^6 cells/ml, 1 ml/tube) were treated with agents for designated times at room temperature. After brief centrifuging in a microfuge (4,000 rpm, 2 min), the cell pellet was lysed on ice for 30 min in […] of cold lysis buffer (1% NP40, 50 mM Tris, pH 7.4, 150 mM NaCl, 20 mM NaF, 0.2 mM Na3VO4 and 1 mM Na3MO4) containing a cocktail of proteinase inhibitors (Sigma, 1 tablet/10 ml). The lysates were cleared by centrifuging (14,000 rpm, 10 min) in a microfuge at 4° C. to remove insoluble parts, mixed with equal volume of 2×SDS-PAGE sample buffer, boiled for 5 min and analyzed (˜3×10^5 cells/well) by SDS-PAGE/Western blotting. Relative intensities of phosphotyrosine bands were quantified through densitometry analysis.
To assess the effects of L5 on other phosphatases, pERK1/2 and pLck-pY505 in L5-treated Jurkat cells were quantified. SHP-2 is known to be a positive mediator of pERK1/2 whereas pLck-pY505 is dephosphorylated by PTPase CD45.

B16 melanoma cells = experiment: B16 melanoma cell growth in culture (MTT assay); format: cell-based, mouse; settings: doses up to 10 μg/ml, 5 days
Experimental: Data represent mean±SD of triplicate samples. […] Tumor volumes were recorded as indicated. C, Athymic nude mice bearing 4-day-established B16 tumors were subjected to differential treatments as in B. Tumor volumes were recorded as indicated.
L5, L6 and L6 analogs (Chembridge), mouse IFNγ ELISPOT Kit (R & D System) and antibody against pLck-pY394 or pERK1/2 (Cell Signaling) were purchased from commercial sources. Human Jurkat T cell line and murine B16 melanoma cell line (ATCC) and other cancer cell lines were maintained in […] culture medium supplemented with 10% fetal calf serum (FCS). The effects of chemical compounds on cancer cell growth in culture were quantified by MTT assays following our established procedures.

Experimental for B16 melanoma tumors: Tumor volume (n=5) was measured during the study period and calculated using the formula for a prolate spheroid. Student's t test was used for assessing the significance of tumor volume differences among differential treatment groups. Mouse viability (daily) and body weights (weekly) were also recorded during the study period. Major internal organs of the mice were inspected visually upon their termination at the end of the experiment.
To assess anti-tumor activity, C57BL/6J mice (˜8-week old, female, Taconic Farms, Germantown, N.Y.) were inoculated (s. c.) at the flanks with B16 melanoma cells (4×10^4 cells/site). […] Tumor volume (n=5) was measured during the study period and calculated using the formula for a prolate spheroid. Student's t test was used for assessing the significance of tumor volume differences among differential treatment groups. Mouse viability (daily) and body weights (weekly) were also recorded during the study period. Major internal organs of the mice were inspected visually upon their termination at the end of the experiment.

O=C1C=CC(=O)C(c2cc(Cl)ccc2Cl)=C1 [L5]
mouse viability [1]: all alive | maximal induction of IFNγ+ cells in human peripheral blood (human peripheral blood; 8 μg/ml): 20 fold | effectiveness relative to SSG in inducing IFNγ+ cells (human peripheral blood; maximal induction at a comparable dose, human peripheral blood): ~20 fold | effect on pLck-pY505 (PTPase CD45): little effects | B16 tumor growth inhibition versus control (B16 melanoma tumors; 1 mg/kg/daily, M-F/wk, oral, day 22): ~9% | growth inhibition of B16 tumors versus control (B16 melanoma tumors; 3 mg/kg/day, oral, M-F/week, end of study): ~83% | tolerance of treated tumor mice (behavior, gross anatomy) (B16 melanoma tumors; mouse, in vivo): no apparent abnormality | direct toxicity against B16 cells in culture (B16 melanoma cells): little direct toxicity
